Source: patent US10927105B1 (Lundbeck La Jolla Research Center, Inc., priority 2017, dated 2021)

target: MAGL (Homo sapiens (Human), UniProt Q99685); assay: In vitro competitive activity-based protein profiling (human prefrontal cortex membrane fractions, FP-Rh probe), MAGL band; conditions: read-out: MAGL IC50 (μM) (human); human prefrontal cortex membrane fractions
Sequence (Q99685 whole entry): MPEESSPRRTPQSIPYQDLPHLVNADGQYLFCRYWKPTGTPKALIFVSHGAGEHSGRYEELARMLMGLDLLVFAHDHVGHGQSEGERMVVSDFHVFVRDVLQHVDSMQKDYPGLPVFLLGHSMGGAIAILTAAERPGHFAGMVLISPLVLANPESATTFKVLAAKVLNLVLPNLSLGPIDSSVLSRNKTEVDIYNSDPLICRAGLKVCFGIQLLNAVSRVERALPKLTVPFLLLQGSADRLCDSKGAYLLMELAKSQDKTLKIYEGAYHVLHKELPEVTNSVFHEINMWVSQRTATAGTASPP
Description: Biological Evaluation In Vitro Competitive Activity-Based Protein Profiling.
Proteomes (mouse brain membrane fraction for mouse assays; human prefrontal cortex membrane fractions for human assays) (50 mL, 1.0 mg/mL total protein concentration) were preincubated with varying concentrations of inhibitors at 37° C. After 30 min, FP-Rh (1.0 mL, 50 mM in DMSO) was added and the mixture was incubated for another 30 min at 37° C. Reactions were quenched with SDS loading buffer (15 μL-4×) and run on SDS-PAGE.

IC50, < 0.1 µM:
Cc1cn(C(=O)N2C[C@H]3C[C@H](Oc4cccc(-c5ccccc5)c4)C[C@H]3C2)nc1C(=O)O [Example 280, 1-(trans-5-([1,1′-biphenyl]-3-yloxy)-octahydrocyclopenta-[c]pyrrole-2-carbonyl)-4-methyl-1H-pyrazole-3-carboxylic acid]
COc1cc(-c2ccccc2)ccc1CN1CCN(C(=O)n2ccc(C(=O)O)n2)[C@H](C)C1 [Example 283, (R)-1-(4-((3-methoxy-[1,1′-biphenyl]-4-yl)methyl)-2-methylpiperazine-1-carbonyl)-1H-pyrazole-3-carboxylic acid]
NC(=O)c1ccn(C(=O)N2CCC3(CCN(Cc4cccc(C(F)(F)F)c4)C3)CC2)n1 [Example 284, 1-(2-(3-(trifluoromethyl)-benzyl)-2,8-diazaspiro[4.5]-decane-8-carbonyl)-1H-pyrazole-3-carboxamide]
O=C(O)c1ccn(C(=O)N2CCC3(CCN(Cc4cccc(Cl)c4Cl)C3)CC2)n1 [Example 286, 1-(2-(2,3-dichlorobenzyl)-2,8-diazaspiro[4.5]-decane-8-carbonyl)-1H-pyrazole-3-carboxylic acid]
Cc1c(CO[C@@H]2C[C@@H]3CN(C(=O)n4ccc(C(=O)O)n4)C[C@@H]3C2)cccc1C(F)(F)F [Example 289, 1-(cis-5-((2-methyl-3-(trifluoromethyl)-benzyl)oxy)-octahydrocyclopenta-[c]pyrrole-2-carbonyl)-1H-pyrazole-3-carboxylic acid]
Cc1cn(C(=O)N2C[C@H]3C[C@H](OCc4cccc(C(F)(F)F)c4)C[C@H]3C2)nc1C(=O)O [Example 290, 4-methyl-1-(trans-5-((3-(trifluoromethyl)-benzyl)oxy)-octahydrocyclopenta-[c]pyrrole-2-carbonyl)-1H-pyrazole-3-carboxylic acid]
C[C@@H]1CN(Cc2ccc(-c3ccccc3)cc2Cl)CCN1C(=O)n1ccc(C(=O)O)n1 [Example 291, (R)-1-(4-((3-chloro-[1,1′-biphenyl]-4-yl)methyl)-2-methylpiperazine-1-carbonyl)-1H-pyrazole-3-carboxylic acid]
O=C(O)c1nn(C(=O)N2C[C@H]3C[C@H](OCc4cc(F)cc(Cl)c4)C[C@H]3C2)cc1Cl [Example 296, 4-chloro-1-(trans-5-((3-chloro-5-fluorobenzyl)oxy)-octahydrocyclopenta-[c]pyrrole-2-carbonyl)-1H-pyrazole-3-carboxylic acid]
C[C@@H]1CN(Cc2ccc(Cl)c(-c3nccs3)c2)CCN1C(=O)n1ccc(C(=O)O)n1 [Example 299, (R)-1-(4-(4-chloro-3-(thiazol-2-yl)benzyl)-2-methylpiperazine-1-carbonyl)-1H-pyrazole-3-carboxylic acid]
Cc1cc(CN2CCCC23CCN(C(=O)n2ccc(C(=O)O)n2)CC3)cc(C(F)(F)F)c1 [Example 303, 1-(1-(3-methyl-5-(trifluoromethyl)-benzyl)-1,8-diazaspiro[4.5]-decane-8-carbonyl)-1H-pyrazole-3-carboxylic acid]
O=C(O)c1nn(C(=O)N2C[C@H]3C[C@H](Oc4cccc(-c5ccccc5)c4)C[C@H]3C2)cc1Cl [Example 304, 1-(trans-5-([1,1′-biphenyl]-3-yloxy)-octahydrocyclopenta-[c]pyrrole-2-carbonyl)-4-chloro-1H-pyrazole-3-carboxylic acid]
Cc1cn(C(=O)N2C[C@H]3C[C@H](OCc4cccc(C(F)(F)F)c4C)C[C@H]3C2)nc1C(=O)O [Example 306, 4-methyl-1-(trans-5-((2-methyl-3-(trifluoromethyl)-benzyl)oxy)-octahydrocyclopenta-[c]pyrrole-2-carbonyl)-1H-pyrazole-3-carboxylic acid]
O=C(O)c1ccn(C(=O)N2CCC(Oc3ccc(C(F)(F)F)cc3N3CCCC3)CC2)n1 [Example 307, 1-(4-(2-(pyrrolidin-1-yl)-4-(trifluoromethyl)-phenoxy)-piperidine-1-carbonyl)-1H-pyrazole-3-carboxylic acid]
O=C(O)c1ccn(C(=O)N2CCC(Oc3cc(N4CCCC4)cc(C(F)(F)F)c3)CC2)n1 [Example 308, 1-(4-(3-(pyrrolidin-1-yl)-5-(trifluoromethyl)-phenoxy)-piperidine-1-carbonyl)-1H-pyrazole-3-carboxylic acid]
C[C@H]1CN(Cc2cccc(Oc3ccc(Cl)cc3)c2)CCN1C(=O)n1ccc(C(=O)O)n1 [Example 311, (S)-1-(4-(3-(4-chlorophenoxy)-benzyl)-2-methylpiperazine-1-carbonyl)-1H-pyrazole-3-carboxylic acid]
O=C(O)c1ccn(C(=O)N2CCC3(CC2)CN(Cc2cc(Cl)ccc2C(F)(F)F)C3)n1 [Example 313, 1-(2-(5-chloro-2-(trifluoromethyl)-benzyl)-2,7-diazaspiro[3.5]-nonane-7-carbonyl)-1H-pyrazole-3-carboxylic acid]
O=C(O)c1nn(C(=O)N2C[C@H]3C[C@H](OCc4cccc(C(F)(F)F)c4)C[C@H]3C2)cc1Cl [Example 314, 4-chloro-1-(trans-5-((3-(trifluoromethyl)-benzyl)oxy)-octahydrocyclopenta-[c]pyrrole-2-carbonyl)-1H-pyrazole-3-carboxylic acid]
O=C(O)c1ccn(C(=O)N2C[C@H]3C[C@H](Oc4ccc(Cl)c(-c5nccs5)c4)C[C@H]3C2)n1 [Example 318, 1-(trans-5-(4-chloro-3-(thiazol-2-yl)phenoxy)-octahydrocyclopenta-[c]pyrrole-2-carbonyl)-1H-pyrazole-3-carboxylic acid]
O=C(O)c1ccn(C(=O)N2CCN(Cc3cc(F)cc(Oc4ccccc4Cl)c3)CC2)n1 [Example 319, 1-(4-(3-(2-chlorophenoxy)-5-fluorobenzyl)-piperazine-1-carbonyl)-1H-pyrazole-3-carboxylic acid]
O=C(O)c1nn(C(=O)N2CCN(Cc3cccc(Oc4ccc(F)cc4)c3)CC2)cc1Cl [Example 320, 4-chloro-1-(4-(3-(4-fluorophenoxy)-benzyl)-piperazine-1-carbonyl)-1H-pyrazole-3-carboxylic acid]
O=C(O)c1ccn(C(=O)N2CCN(Cc3cc(F)cc(Oc4cccc(Cl)c4)c3)CC2)n1 [Example 321, 1-(4-(3-(3-chlorophenoxy)-5-fluorobenzyl)-piperazine-1-carbonyl)-1H-pyrazole-3-carboxylic acid]
O=C(O)c1nn(C(=O)N2CCN(Cc3cc(Cl)cc(-c4cncnc4)c3)CC2)cc1Cl [Example 323, 4-chloro-1-(4-(3-chloro-5-(pyrimidin-5-yl)benzyl)-piperazine-1-carbonyl)-1H-pyrazole-3-carboxylic acid]
C[C@@H]1CN(Cc2ccc(C(F)(F)F)cc2N2CCCC2)CCN1C(=O)n1ccc(C(N)=O)n1 [Example 325, (R)-1-(2-methyl-4-(2-(pyrrolidin-1-yl)-4-(trifluoromethyl)-benzyl)piperazine-1-carbonyl)-1H-pyrazole-3-carboxamide]
C[C@@H]1CN(Cc2ccc(C(F)(F)F)cc2N2CCCC2)CCN1C(=O)n1ccc(C(=O)O)n1 [Example 327, (R)-1-(2-methyl-4-(2-(pyrrolidin-1-yl)-4-(trifluoromethyl)-benzyl)-piperazine-1-carbonyl)-1H-pyrazole-3-carboxylic acid]
O=C(O)c1ccn(C(=O)N2CCC(OCc3cc(N4CCCC4)cc(C(F)(F)F)c3)CC2)n1 [Example 331, 1-(4-((3-(pyrrolidin-1-yl)-5-(trifluoromethyl)-benzyl)-oxy)piperidine-1-carbonyl)-1H-pyrazole-3-carboxylic acid]
O=C(O)c1ccn(C(=O)N2CCN(Cc3ccc(C(F)(F)F)cc3N3CC[C@@H](O)C3)CC2)n1 [Example 333, (R)-1-(4-(2-(3-hydroxypyrrolidin-1-yl)-4-(trifluoromethyl)-benzyl)-piperazine-1-carbonyl)-1H-pyrazole-3-carboxylic acid]
O=C(O)c1ccn(C(=O)N2CCC3(CCN(Cc4cc(Cl)cc(Cl)c4Cl)C3)CC2)n1 [Example 337, 1-(2-(2,3,5-trichlorobenzyl)-2,8-diazaspiro[4.5]-decane-8-carbonyl)-1H-pyrazole-3-carboxylic acid]
O=C(O)c1ccn(C(=O)N2CCC3(CCN(Cc4cccc(C(F)(F)F)c4Cl)C3)CC2)n1 [Example 339, 1-(2-(2-chloro-3-(trifluoromethyl)-benzyl)-2,8-diazaspiro[4.5]-decane-8-carbonyl)-1H-pyrazole-3-carboxylic acid]
Cc1c(CO[C@H]2C[C@@H]3CN(C(=O)n4cc(Cl)c(C(=O)O)n4)C[C@@H]3C2)cccc1C(F)(F)F [Example 341, 4-chloro-1-(trans-5-((2-methyl-3-(trifluoromethyl)-benzyl)oxy)-octahydrocyclopenta-[c]pyrrole-2-carbonyl)-1H-pyrazole-3-carboxylic acid]
O=C(O)c1ccn(C(=O)N2C[C@H]3C[C@H](OCc4ccc(Cl)c(-c5nccs5)c4)C[C@H]3C2)n1 [Example 345, 1-(trans-5-((4-chloro-3-(thiazol-2-yl)benzyl)oxy)-octahydrocyclopenta-[c]pyrrole-2-carbonyl)-1H-pyrazole-3-carboxylic acid]
Cc1cn(C(=O)N2CCN(Cc3cc(F)cc(Oc4ccc(Cl)cc4)c3)CC2)nc1C(=O)O [Example 346, 1-(4-(3-(4-chlorophenoxy)-5-fluorobenzyl)-piperazine-1-carbonyl)-4-methyl-1H-pyrazole-3-carboxylic acid]
